ChEMBL document CHEMBL4219030, “Progress in the discovery of small molecule modulators of the Cys-loop superfamily receptors” (Bioorg Med Chem Lett, 2017)

Assays:
[1] = molecular target: Glycine receptor (Rattus norvegicus) (UniProt P22771+P24524+P07727+P20781); test: Positive allosteric modulation of OFA rat embryonic ventral spinal cord neuron glycine receptor assessed as potentiation of glycine-induced chloride current at 1 to 10 uM by whole cell patch-clamp method relative to 10 uM glycine; assay type: protein-complex assay
[2] = molecular target: T1, 5-hydroxytryptamine receptor 3A (Cavia porcellus, UniProt O70212); test: Antagonist activity 5-HT3A receptor in guinea pig ileum assessed as inhibition of 2-methyl-5-HT induced response preincubated for 10 mins followed by agonist addition; conditions: read-out: pA2 (converted)
T1 sequence (O70212 whole entry): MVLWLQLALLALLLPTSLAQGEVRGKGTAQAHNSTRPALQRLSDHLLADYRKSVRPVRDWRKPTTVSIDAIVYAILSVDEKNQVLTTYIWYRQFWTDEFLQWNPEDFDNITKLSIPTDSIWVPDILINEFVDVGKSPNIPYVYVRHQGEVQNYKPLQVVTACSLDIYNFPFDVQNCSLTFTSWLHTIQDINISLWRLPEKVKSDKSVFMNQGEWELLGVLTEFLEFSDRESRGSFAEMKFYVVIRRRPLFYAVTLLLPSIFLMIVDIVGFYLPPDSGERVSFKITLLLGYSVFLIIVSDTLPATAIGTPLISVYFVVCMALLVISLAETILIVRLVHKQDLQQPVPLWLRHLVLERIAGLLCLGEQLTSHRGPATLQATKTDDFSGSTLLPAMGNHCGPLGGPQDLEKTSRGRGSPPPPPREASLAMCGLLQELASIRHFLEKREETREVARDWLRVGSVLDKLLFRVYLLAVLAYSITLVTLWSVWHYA

[3] = molecular target: 5-hydroxytryptamine receptor 3A/3E (Homo sapiens, UniProt A5X5Y0+P46098); test: Inhibition of human 5-HT3AE receptor expressed in […] cells after 30 mins by Fluo-4-AM dye based FLIPR assay; assay type: cell-based
[4] = molecular target: T2, Serotonin 3 (5-HT3) receptor (Homo sapiens, UniProt O95264+P46098); test: Inhibition of human 5-HT3AB receptor expressed in […] cells after 30 mins by Fluo-4-AM dye based FLIPR assay; assay type: cell-based
T2 sequence (P46098 whole entry): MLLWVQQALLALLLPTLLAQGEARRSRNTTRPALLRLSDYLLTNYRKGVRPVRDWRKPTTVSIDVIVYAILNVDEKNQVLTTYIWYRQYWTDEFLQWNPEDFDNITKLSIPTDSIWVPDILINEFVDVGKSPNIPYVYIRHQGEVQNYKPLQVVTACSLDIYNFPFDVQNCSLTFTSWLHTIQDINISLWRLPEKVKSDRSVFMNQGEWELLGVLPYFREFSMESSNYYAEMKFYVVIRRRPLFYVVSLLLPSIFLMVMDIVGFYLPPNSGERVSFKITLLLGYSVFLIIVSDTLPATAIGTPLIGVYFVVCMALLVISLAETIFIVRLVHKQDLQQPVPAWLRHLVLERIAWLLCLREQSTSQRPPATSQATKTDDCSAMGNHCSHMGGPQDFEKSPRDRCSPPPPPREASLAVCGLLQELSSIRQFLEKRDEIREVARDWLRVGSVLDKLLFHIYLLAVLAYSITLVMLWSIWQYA
T2 sequence (O95264 whole entry): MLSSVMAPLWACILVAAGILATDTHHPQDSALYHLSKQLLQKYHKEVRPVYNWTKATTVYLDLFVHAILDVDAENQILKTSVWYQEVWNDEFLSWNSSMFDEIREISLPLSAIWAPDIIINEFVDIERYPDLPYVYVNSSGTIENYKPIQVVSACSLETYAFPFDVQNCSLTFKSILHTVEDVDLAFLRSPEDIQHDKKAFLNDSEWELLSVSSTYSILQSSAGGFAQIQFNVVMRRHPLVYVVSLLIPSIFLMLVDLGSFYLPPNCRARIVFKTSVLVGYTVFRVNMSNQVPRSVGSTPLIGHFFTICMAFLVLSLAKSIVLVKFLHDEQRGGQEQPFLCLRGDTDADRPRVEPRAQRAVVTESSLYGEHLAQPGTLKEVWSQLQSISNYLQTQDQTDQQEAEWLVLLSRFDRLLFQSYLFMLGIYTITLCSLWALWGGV

[5] = molecular target: 5-hydroxytryptamine receptor 3A/3C (Homo sapiens, UniProt P46098+Q8WXA8); test: Inhibition of human 5-HT3AC receptor expressed in […] cells after 30 mins by Fluo-4-AM dye based FLIPR assay; assay type: cell-based
[6] = molecular target: T3, 5-hydroxytryptamine receptor 3A (Homo sapiens, UniProt P46098); test: Inhibition of human 5-HT3A receptor expressed in […] cells after 30 mins by Fluo-4-AM dye based FLIPR assay; assay type: cell-based
T3 sequence (P46098 whole entry): T2 sequence (P46098 whole entry)

[7] = molecular target: Gamma-aminobutyric acid receptor subunit alpha-1/beta-2 (Rattus norvegicus) (UniProt P62813+P63138); conditions: HEK293, 30 uM
Description: Positive allosteric modulation of recombinant rat GABAA receptor alpha1beta2 expressed in HEK293 cells assessed as increase in GABA-induced current at 30 uM at -100 mV holding potential measured for 1 to 2 secs for every 60 secs by whole cell patch-clamp method relative to GABA

[8] = molecular target: T4, Glycine receptor subunit alpha-1 (Homo sapiens) (UniProt P23415); conditions: HEK293, 30 uM
T4 sequence (whole entry): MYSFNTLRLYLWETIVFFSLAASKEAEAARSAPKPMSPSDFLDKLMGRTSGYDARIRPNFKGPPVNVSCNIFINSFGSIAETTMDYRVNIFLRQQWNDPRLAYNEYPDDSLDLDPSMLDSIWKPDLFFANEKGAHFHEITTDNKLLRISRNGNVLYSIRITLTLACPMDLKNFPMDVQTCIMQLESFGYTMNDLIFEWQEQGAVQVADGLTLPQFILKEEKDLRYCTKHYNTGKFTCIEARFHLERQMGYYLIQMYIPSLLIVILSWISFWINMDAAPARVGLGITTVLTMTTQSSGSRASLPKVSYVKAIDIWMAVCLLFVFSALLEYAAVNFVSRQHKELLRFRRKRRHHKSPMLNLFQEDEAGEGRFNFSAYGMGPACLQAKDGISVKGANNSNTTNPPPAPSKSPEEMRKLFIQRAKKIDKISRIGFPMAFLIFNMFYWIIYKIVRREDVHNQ
Description: Positive allosteric modulation of recombinant human glycine receptor alpha1 expressed in HEK293 cells assessed as increase in glycine-induced current at 30 uM at -60 mV holding potential measured for 1 to 2 secs for every 60 secs by whole cell patch-clamp method relative to glycine

[9] = molecular target: T3, 5-hydroxytryptamine receptor 3A; test: Displacement of [3H]granisetron from human 5-HT3A receptor expressed in HEK293 cells by scintillation counting method; assay type: cell-based
[10] = molecular target: T2, Serotonin 3 (5-HT3) receptor; test: Displacement of [3H]granisetron from human 5-HT3AB receptor expressed in HEK293 cells by scintillation counting method; assay type: cell-based
[11] = molecular target: Neuronal acetylcholine receptor subunit alpha-7 (Rattus norvegicus, UniProt Q05941); test: Agonist activity at rat brain membrane alpha7 nAChR
[12] = molecular target: T3, 5-hydroxytryptamine receptor 3A; test: Inhibition of recombinant human 5-HT3A receptor expressed in HEK293 cell membranes […] in presence of [3H]GR65630
[13] = molecular target: GABA-A receptor; alpha-3/beta-3/gamma-2 (Homo sapiens) (UniProt P18507+P28472+P34903); test: Positive allosteric modulation of recombinant human GABAA receptor alpha3beta3gamma2 expressed in Xenopus oocytes assessed as potentiation of GABA induced chloride currents relative to 10 uM GABA; assay type: cell-based
[14] = molecular target: Gamma-aminobutyric acid receptor subunit alpha-5/beta-3 (Homo sapiens) (UniProt P28472+P31644); test: Positive allosteric modulation of recombinant human GABAA receptor alpha5beta3 expressed in Xenopus oocytes assessed as potentiation of GABA induced chloride current response relative to GABA; assay type: cell-based
[15] = molecular target: GABA-A receptor alpha-1/beta-3 (Homo sapiens) (UniProt P14867+P28472); test: Positive allosteric modulation of recombinant human GABAA receptor alpha1beta3 expressed in Xenopus oocytes assessed as potentiation of GABA induced chloride current response relative to GABA; assay type: cell-based
[16] = molecular target: GABA-A receptor; alpha-2/beta-3/gamma-2 (Homo sapiens) (UniProt P18507+P28472+P47869); test: Positive allosteric modulation of recombinant human GABAA receptor alpha2beta3gamma2 expressed in Xenopus oocytes assessed as potentiation of GABA induced chloride currents relative to 10 uM GABA; assay type: cell-based
[17] = molecular target: GABA-A receptor; alpha-5/beta-3/gamma-2 (Homo sapiens) (UniProt P18507+P28472+P31644); test: Positive allosteric modulation of recombinant human GABAA receptor alpha5beta3gamma2 expressed in Xenopus oocytes assessed as potentiation of GABA induced chloride currents relative to 10 uM GABA; assay type: cell-based
[18] = molecular target: Gamma-aminobutyric acid receptor subunit alpha-2/beta-3 (Homo sapiens) (UniProt P28472+P47869); test: Positive allosteric modulation of recombinant human GABAA receptor alpha2beta3 expressed in Xenopus oocytes assessed as potentiation of GABA induced chloride current response relative to GABA; assay type: cell-based
[19] = molecular target: GABA-A receptor; alpha-6/beta-3/gamma-2 (Homo sapiens) (UniProt P18507+P28472+Q16445); test: Positive allosteric modulation of recombinant human GABAA receptor alpha6beta3gamma2 expressed in Xenopus oocytes assessed as potentiation of GABA induced chloride currents relative to 10 uM GABA; assay type: cell-based
[20] = molecular target: GABA-A receptor; alpha-1/beta-3/gamma-2 (Homo sapiens) (UniProt P14867+P18507+P28472); test: Positive allosteric modulation of recombinant human GABAA receptor alpha1beta3gamma2 expressed in Xenopus oocytes assessed as potentiation of GABA induced chloride current response relative to 10 uM GABA; assay type: cell-based
[21] = molecular target: Gamma-aminobutyric acid receptor subunit alpha-3/beta-3 (Homo sapiens) (UniProt P28472+P34903); test: Positive allosteric modulation of recombinant human GABAA receptor alpha3beta3 expressed in Xenopus oocytes assessed as potentiation of GABA induced chloride current response relative to GABA; assay type: cell-based
[22] = molecular target: GABA A receptor alpha-4/beta-3/gamma-2 (Homo sapiens, UniProt P18507+P28472+P48169); test: Positive allosteric modulation of recombinant human GABAA receptor alpha4beta3gamma2 expressed in Xenopus oocytes assessed as potentiation of GABA induced chloride currents relative to 10 uM GABA; assay type: cell-based
[23] = molecular target: T3, 5-hydroxytryptamine receptor 3A; test: Agonist activity at human […] receptor expressed in Xenopus laevis oocytes; assay type: cell-based
[24] = molecular target: T2, Serotonin 3 (5-HT3) receptor; test: Agonist activity at human […] receptor expressed in Xenopus laevis oocytes; assay type: cell-based
[25] = molecular target: T5, Glycine receptor subunit alpha-1 (Homo sapiens, UniProt P23415); test: Positive allosteric modulation of human glycine alpha1 receptor expressed in HEK293T cells assessed as glycine-induced increase incurrent response after 18 to 24 hrs by membrane potential blue dye based FLIPR assay; assay type: cell-based
T5 sequence (P23415 whole entry): T4 sequence (whole entry)

[26] = molecular target: T6, Glycine receptor alpha-3/beta (Homo sapiens, UniProt O75311+P48167); test: Positive allosteric modulation of human glycine alpha3beta receptor expressed in HEK293T cells assessed as potentiation of glycine-induced increase in current response after 18 to 24 hrs by membrane potential blue dye based FLIPR assay relative to glycine; assay type: cell-based
[27] = molecular target: T6, Glycine receptor alpha-3/beta; test: Positive allosteric modulation of human glycine alpha3beta receptor expressed in HEK293T cells assessed as glycine-induced increase in current response after 18 to 24 hrs by membrane potential blue dye based FLIPR assay; assay type: cell-based
[28] = molecular target: Glycine receptor (alpha-1/beta) (Homo sapiens, UniProt P23415+P48167); test: Positive allosteric modulation of human glycine alpha1beta receptor expressed in HEK293T cells assessed as glycine-induced increase in current response after 18 to 24 hrs by membrane potential blue dye based FLIPR assay; assay type: cell-based
[29] = molecular target: Neuronal acetylcholine receptor; alpha3/beta2 (Homo sapiens) (UniProt P17787+P32297); test: Positive allosteric modulation of human alpha3beta2 nAChR expressed Xenopus oocytes at 3 uM relative to acetylcholine; assay type: protein-complex assay
[30] = molecular target: T4, Glycine receptor subunit alpha-1 (Homo sapiens); test: Positive allosteric modulation of human glycine receptor alpha1 expressed in HEK293 cells assessed as potentiation of glycine-induced current response at 10 uM measure for 3 to 6 secs by whole cell patch-clamp method relative to glycine; assay type: cell-based

Neuronal acetylcholine receptor subunit alpha-7, sequence (Q05941 whole entry): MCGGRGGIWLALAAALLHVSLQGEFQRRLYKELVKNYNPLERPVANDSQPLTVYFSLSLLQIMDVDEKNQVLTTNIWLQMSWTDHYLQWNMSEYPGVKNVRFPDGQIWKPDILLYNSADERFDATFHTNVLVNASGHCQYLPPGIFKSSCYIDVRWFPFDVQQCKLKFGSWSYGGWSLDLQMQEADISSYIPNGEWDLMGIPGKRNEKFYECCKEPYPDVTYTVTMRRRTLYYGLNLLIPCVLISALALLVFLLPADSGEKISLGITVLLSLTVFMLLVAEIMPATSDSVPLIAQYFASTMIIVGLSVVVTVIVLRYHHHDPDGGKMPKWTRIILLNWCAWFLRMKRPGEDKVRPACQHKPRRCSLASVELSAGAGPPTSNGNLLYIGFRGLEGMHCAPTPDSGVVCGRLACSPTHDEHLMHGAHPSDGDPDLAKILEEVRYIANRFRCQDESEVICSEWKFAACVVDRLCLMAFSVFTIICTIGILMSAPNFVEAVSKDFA
5-hydroxytryptamine receptor 3A/3E, sequence (A5X5Y0 whole entry, one chain of several): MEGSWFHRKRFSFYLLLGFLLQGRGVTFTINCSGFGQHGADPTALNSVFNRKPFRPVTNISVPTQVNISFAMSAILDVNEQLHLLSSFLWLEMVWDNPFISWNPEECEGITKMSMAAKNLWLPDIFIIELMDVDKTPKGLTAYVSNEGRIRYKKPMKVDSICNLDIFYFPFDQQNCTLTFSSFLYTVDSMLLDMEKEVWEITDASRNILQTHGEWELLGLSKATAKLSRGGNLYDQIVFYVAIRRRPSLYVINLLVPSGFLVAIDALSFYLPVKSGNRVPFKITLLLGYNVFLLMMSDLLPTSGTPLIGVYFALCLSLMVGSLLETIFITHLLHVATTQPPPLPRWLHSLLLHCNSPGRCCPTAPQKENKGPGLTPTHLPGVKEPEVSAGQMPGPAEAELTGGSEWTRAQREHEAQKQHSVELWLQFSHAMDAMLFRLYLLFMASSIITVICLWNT
5-hydroxytryptamine receptor 3A/3C, sequence (Q8WXA8 whole entry, one chain of several): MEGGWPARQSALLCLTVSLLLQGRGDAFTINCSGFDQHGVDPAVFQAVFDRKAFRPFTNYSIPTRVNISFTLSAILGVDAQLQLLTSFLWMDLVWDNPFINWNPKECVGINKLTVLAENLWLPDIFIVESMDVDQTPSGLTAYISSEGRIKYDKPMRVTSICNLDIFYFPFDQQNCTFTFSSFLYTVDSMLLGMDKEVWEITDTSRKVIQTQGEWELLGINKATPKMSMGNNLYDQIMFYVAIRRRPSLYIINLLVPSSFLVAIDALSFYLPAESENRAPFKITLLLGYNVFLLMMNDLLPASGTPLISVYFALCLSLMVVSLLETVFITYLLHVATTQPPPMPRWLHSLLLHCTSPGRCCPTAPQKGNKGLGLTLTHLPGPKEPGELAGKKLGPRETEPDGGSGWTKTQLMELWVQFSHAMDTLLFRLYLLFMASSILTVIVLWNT
Glycine receptor (Rattus norvegicus), sequence (P07727 whole entry, looked up): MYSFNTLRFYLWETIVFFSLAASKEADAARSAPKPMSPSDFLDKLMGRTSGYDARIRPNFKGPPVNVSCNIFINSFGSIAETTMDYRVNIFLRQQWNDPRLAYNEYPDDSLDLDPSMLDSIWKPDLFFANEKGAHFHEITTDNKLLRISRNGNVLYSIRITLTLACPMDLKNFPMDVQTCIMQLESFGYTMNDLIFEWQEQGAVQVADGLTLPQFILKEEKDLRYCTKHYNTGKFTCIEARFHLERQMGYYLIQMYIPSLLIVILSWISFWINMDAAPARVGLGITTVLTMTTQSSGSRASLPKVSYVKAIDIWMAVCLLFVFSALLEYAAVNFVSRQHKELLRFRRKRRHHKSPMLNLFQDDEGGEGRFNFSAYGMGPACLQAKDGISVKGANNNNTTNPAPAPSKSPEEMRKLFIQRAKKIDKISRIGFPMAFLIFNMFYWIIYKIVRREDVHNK
Glycine receptor (Rattus norvegicus), sequence (P20781 whole entry, looked up): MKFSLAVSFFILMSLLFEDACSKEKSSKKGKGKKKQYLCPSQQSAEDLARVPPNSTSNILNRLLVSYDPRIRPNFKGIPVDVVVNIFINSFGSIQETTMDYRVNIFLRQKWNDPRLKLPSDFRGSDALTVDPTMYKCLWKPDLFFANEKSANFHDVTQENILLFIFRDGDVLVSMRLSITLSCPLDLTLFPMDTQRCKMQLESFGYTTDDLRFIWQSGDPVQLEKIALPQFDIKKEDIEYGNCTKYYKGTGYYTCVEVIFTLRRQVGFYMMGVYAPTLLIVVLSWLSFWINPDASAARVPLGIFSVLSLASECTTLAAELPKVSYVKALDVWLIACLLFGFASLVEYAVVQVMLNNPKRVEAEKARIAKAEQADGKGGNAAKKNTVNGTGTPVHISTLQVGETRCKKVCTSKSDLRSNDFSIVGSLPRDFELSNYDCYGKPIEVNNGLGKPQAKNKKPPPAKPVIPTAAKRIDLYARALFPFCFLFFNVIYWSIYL
Glycine receptor (Rattus norvegicus), sequence (P22771 whole entry, looked up): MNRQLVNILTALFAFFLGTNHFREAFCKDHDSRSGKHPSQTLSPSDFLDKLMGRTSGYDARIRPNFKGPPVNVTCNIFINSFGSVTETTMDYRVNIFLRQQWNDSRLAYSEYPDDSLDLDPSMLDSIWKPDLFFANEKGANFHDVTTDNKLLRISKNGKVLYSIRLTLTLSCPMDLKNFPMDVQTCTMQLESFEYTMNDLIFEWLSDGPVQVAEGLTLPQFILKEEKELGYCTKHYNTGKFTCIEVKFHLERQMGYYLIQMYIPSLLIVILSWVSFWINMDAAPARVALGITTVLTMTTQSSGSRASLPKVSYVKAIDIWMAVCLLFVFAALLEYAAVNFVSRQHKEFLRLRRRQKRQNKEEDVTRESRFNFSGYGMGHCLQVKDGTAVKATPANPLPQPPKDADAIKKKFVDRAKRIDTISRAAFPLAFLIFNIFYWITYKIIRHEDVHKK
Glycine receptor (Rattus norvegicus), sequence (P24524 whole entry, looked up): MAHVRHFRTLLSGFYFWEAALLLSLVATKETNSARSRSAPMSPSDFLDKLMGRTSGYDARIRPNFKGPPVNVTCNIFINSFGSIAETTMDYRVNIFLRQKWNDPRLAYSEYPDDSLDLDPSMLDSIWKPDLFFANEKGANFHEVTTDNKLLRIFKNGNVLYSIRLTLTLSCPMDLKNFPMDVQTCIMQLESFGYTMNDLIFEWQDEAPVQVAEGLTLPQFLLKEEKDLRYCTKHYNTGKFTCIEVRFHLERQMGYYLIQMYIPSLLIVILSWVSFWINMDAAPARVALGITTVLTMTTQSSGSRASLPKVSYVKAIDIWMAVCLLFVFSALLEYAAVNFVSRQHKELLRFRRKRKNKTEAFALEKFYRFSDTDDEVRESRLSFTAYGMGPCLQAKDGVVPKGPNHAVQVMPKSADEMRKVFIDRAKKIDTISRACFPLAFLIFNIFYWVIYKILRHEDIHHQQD
T6 sequence (O75311 whole entry): as the sequence (P24524 whole entry, looked up) above, with L11V, N32D, T372M, L381F, V398M, V399T, A406P, A414P, H461Q counted along it
T6 sequence (P48167 whole entry): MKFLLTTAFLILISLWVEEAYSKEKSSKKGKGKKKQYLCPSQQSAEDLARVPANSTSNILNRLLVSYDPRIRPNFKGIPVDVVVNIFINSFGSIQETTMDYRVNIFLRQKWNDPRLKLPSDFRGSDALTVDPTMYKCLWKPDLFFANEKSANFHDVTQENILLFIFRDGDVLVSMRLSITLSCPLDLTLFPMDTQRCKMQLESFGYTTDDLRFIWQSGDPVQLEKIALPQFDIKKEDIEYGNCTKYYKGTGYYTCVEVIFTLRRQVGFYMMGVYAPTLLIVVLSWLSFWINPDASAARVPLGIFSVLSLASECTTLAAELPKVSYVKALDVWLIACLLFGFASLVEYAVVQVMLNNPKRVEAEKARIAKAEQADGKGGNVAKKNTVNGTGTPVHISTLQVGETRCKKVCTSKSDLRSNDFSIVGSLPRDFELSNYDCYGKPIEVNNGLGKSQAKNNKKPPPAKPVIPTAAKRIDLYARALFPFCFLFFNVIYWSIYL
Glycine receptor (alpha-1/beta), sequence (P48167 whole entry, one chain of several): as the sequence (P48167 whole entry) above

## CN1[C@@H]2CC[C@H]1C[C@@H](NC(=O)c1nn(C)c3ccccc13)C2
[1]
  fold change (FC): 1.73

## CCCCNC(=O)c1nc2ccccc2nc1OC
[2]
  Kb: 20 nM

## c1ccc2c(CSc3[nH]cnc4ncnc3-4)cccc2c1
[3]
  IC50: 710 nM
[4]
  IC50: 430 nM
[5]
  IC50: 840 nM
[6]
  IC50: 620 nM

## CC(C)c1cccc(C(C)C)c1O
[7]
  Emax: 279%
[8]
  Emax: 189%

## CN1CCN(c2nc3ccccc3nc2Cl)CC1
[9]
  Ki: 0.04 nM
[10]
  Ki: 22 nM

## O=C(N[C@H]1CN2CCC1CC2)c1ccc2ncccc2c1
[11]
  IC50: 10000 nM
[12]
  IC50: 150 nM

## O=C1C=C[C@H]([C@H]2c3cccc([N+](=O)[O-])c3C=CN2C(=O)OCc2ccccc2)O1
[13]
  fold change (FC): 2.9
[14]
  fold change (FC): 1.4
[15]
  fold change (FC): 1.4
[16]
  fold change (FC): 2.1
[17]
  fold change (FC): 1.4
[18]
  fold change (FC): 1.8
[19]
  fold change (FC): 2.9
[20]
  fold change (FC): 2.6
[21]
  fold change (FC): 1.4
[22]
  fold change (FC): 1.4

## O=C(c1cnc2ccccc2n1)N1CCN(Cc2ccccc2)CC1
[2]
  Kb: 15.8 nM

## COc1nc2ccccc2nc1C(=O)Nc1ccc(C)cc1
[2]
  Kb: 50.1 nM

## COc1nc2ccccc2nc1C(=O)Nc1nc2ccccc2s1
[2]
  Kb: 39.8 nM

## N=C(N)NC(=N)Nc1cccc(Cl)c1
[23]
  EC50: 3800 nM
[24]
  EC50: 2800 nM

## CN1C(=O)[C@@H]2CN(S(=O)(=O)c3ccc4occc4c3)C[C@@H]2c2cnccc21
[25]
  EC50: 327 nM
[26]
  fold change (FC): 16
[27]
  EC50: 330 nM
[28]
  EC50: 171 nM

## Clc1ccccc1CN[C@@H]1CN2CCC1CC2
[29]
  fold change (FC): 3

## CCCCCc1ccc2c(c1)OC(C)(C)[C@@H]1CCC(C)=C[C@@H]21
[30]
  fold change (FC): 30
